Literature values in patent publication US20110105624A1, “ENDIPALENE FORMULATIONS IN THE TREATMENT OF PSORIASIS” (priority 2008, published 2011).

System: volunteers with psoriasis

For `COc1c(OC)c(OC(C)=O)c2cc(Cl)ccc2c1OC(C)=O` [Lonapalene, 6-chloro-2,3-dimethoxynaphtalendiacetate], the “clinical improvement in lesions” value (2% ointment, topical, compared with vehicle-treated sites) is listed as “statistically significant clinical improvement” and the “side effects related to topical application” value (topical application) is listed as “serious side effects”.
